The values below come from patent publication US20090147264A1, “LABEL-FREE, REAL-TIME DETECTION SYSTEM FOR MOLECULAR INTERACTION ANALYSIS” (The University of Pittsburgh - Of the Commonwealth System …, priority 2007, published 2009).

Data set [1] deals with T1, HMGB1 (Homo sapiens, UniProt P09429).
T1 sequence (P09429 1-215): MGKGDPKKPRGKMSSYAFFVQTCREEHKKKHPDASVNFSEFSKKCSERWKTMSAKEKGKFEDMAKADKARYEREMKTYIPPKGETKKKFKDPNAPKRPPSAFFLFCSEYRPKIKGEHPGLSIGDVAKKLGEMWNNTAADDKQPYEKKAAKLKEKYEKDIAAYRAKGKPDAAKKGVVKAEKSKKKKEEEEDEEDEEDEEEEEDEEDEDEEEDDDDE
The data set can be described thus: Biolayer interferometry (BLI) binding of DNA to HMGB1 coupled to a biolayer sensor. As to conditions: for effect of addition of platinum compound on DNA binding / affinity of DNA to HMGB1: platinum compound added to DNA; for Kd: HMGB1 amide-coupled to biolayer sensor, + CP = with cisplatin, read-out: Affinity to HMGB1.

The target in a further data set is RAGE (Homo sapiens, UniProt Q15109). Briefly: BLI binding of sRAGE to HMGB1 in the presence of DNA. As to conditions: for Kd: sRAGE binding to HMGB1 in the presence of the DNA, + CP = with cisplatin, read-out: Affinity to RAGE.
Data set [2] addresses HMGB1 (Homo sapiens?) (UniProt P09429). The data set can be described thus: BLI. As to conditions: given as affinity, unit not stated (M assumed).

Chain of RAGE (Q15109 23-342 limits assumed, one chain of several): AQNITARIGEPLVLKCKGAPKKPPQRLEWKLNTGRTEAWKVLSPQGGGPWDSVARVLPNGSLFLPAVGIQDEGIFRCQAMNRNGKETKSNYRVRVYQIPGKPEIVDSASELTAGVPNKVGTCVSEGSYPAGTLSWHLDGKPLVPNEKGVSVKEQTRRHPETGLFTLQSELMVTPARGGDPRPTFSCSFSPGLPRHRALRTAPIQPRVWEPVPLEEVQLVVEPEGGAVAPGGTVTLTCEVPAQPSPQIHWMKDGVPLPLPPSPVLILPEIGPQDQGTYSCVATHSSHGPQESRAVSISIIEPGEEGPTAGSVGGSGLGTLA

In the case of `N.N.O=C([O-])C1(C(=O)[O-])CCC1.[Pt+2]` [carboplatinum, carboplatin], the “effect of addition of platinum compound on DNA binding / affinity of DNA to HMGB1” value on HMGB1 [1] is “enhanced DNA binding”.

For `O=C1[O][Pt]2([NH][C@@H]3CCCC[C@H]3[NH]2)[O]C1=O` [oxaliplatin], the “effect of addition of platinum compound on DNA binding / affinity of DNA to HMGB1” value at HMGB1 [1] is given as “enhanced DNA binding”. In the case of `N.N.[Cl][Pt][Cl]` [cisplatin], on RAGE (in the presence of cisplatin), the “effect of cisplatin on affinity between sRAGE and HMGB1” value is given as “No increased affinity”. The “effect of addition of platinum compound on DNA binding / affinity of DNA to HMGB1” value on HMGB1 [1] is given as “increases the affinity”; on HMGB1 [1] (listed as cis-platinum), “enhanced DNA binding”. Consider “5′-GTA cGA agT CCG TTC cTa GGC tTG ct-3′ (5'-GTA cGA agT CCG TTC cTa GGC tTG ct-3'; as printed in the source, key not given here) [Scrambled 2, scrambled hairpin oligonucleotide used as a control]”, for which the Kd with RAGE is 3.9 nM; with HMGB1 [1], 180 nM. Taken in the same sequence, the figures for “5′-CTGGACCTTCC*T*T*T*T*GGAAGGTCC*A*G [Oligo 2]” were 4.3 nM and 33 nM. Linear DNA: the Kd with HMGB1 [2] stood at 0.014 nM.

For the compound “5′-cTC CGA CGc tCA aTG cTG GTA CGG Tat CCG TgT TAG-3′ (CTCCGACGCTCAATGCTGGTACGGTATCCGTGTTAG; chemistry not given here) [Scrambled 1, scrambled hairpin oligonucleotide used as a control]”, the Kd in the data set with RAGE was 8.7 nM; with HMGB1 [1] it was 51 nM.

On to Circular DNA, for which, in the data set with HMGB1 [2] (p52 says circular DNA not measured well), the Kd amounted to 3.6 nM. Regarding “5′-CCTCTCTGGACCTTCC*T*T*T*T*GGAAGGTCCAGAGA*G*G [Oligo 1]”, the Kd at RAGE stood at 8.7 nM; at HMGB1 [1], 6.6 nM.
